Values after ≈ are worked out from the molar mass of the structure shown.
How the values were obtained:
H 460M (lung carcinoma) = test: Cytotoxicity, MTT assay, H 460M cells; assay type: cell-based; details: human lung carcinoma cells, 144 hours incubation, read-out: H460M (IC50, μg/ml)
Protocol: (§1) The compounds according to the invention have been pharmacologically tested against four human tumor cell lines: HT 29 (colon carcinoma), PC 3 (prostate carcinoma), H 460M (lung carcinoma), MKN-45 (gastric carcinoma). Cells were incubated with the tested compound for 144 hours, then cytotoxicity was determined by using the MTT assay (Mosman, T. “Rapid Colorimetric Assay for Cellular Growth and Survival: Application to Proliferation and Cytotoxicity Assay”; J. Immunolog. Methods, (1983), 65, 66; Green, L. M., “Rapid Colorimetric Assay for Cell Viability; Application to the Quantitation of Cytotoxic and Growth Inhibitory Lymphokines”, J. Immunol. Methods, (1984),;70, 257-268).
(§2) The compounds according to the invention have been pharmacologically tested against four human tumour cell lines: HT 29 (colon carcinoma), PC 3 (prostate carcinoma), H 460M (lung carcinoma), MKN45 (gastric carcinoma). Cells were incubated with the tested compound for 144 hours, then cytotoxicity was determined by using the MTT assay (Mosman, T. “Rapid Colorimetric Assay for Cellular Growth and Survival: Application to Proliferation and Cytotoxicity Assay”; J. Immunolog. Methods, (1983), 65, 66; Green, L. M., “Rapid Colorimetric Assay for Cell Viability; Application to the Quantitation of Cytotoxic and Growth Inhibitory Lymphokines”, J. Immunol. Methods, (1984), 70, 257-268).

[1] = test system: PC 3 (prostate carcinoma); test: Cytotoxicity, MTT assay, PC 3 cells; assay type: cell-based; details: human prostate carcinoma cells, 144 hours incubation, read-out: PC3 (IC50, μg/ml)
Protocol: as §1, §2

HT 29 (colon carcinoma) = test: Cytotoxicity, MTT assay, HT 29 cells; assay type: cell-based; details: human colon adenocarcinoma cells, 144 hours incubation, read-out: HT29 (IC50, μg/ml)
Protocol: as §1, §2

[2] = test system: MKN-45 (gastric carcinoma); test: Cytotoxicity, MTT assay, MKN-45 cells; assay type: cell-based; details: human gastric carcinoma cells, 144 hours incubation, read-out: MKN-45 (IC50, μg/ml)
Protocol: as §1, §2

| Compound | melting point | IC50 (H 460M (lung carcinoma)) | IC50 [1] | IC50 (HT 29 (colon carcinoma)) | IC50 [2] |
| --- | --- | --- | --- | --- | --- |
| NCCNC(=O)c1cccc2c1c(C(=O)C(=O)NC1=CC(=O)OC1)cn2Cc1ccc(Cl)cc1 | 190 to 196 °C | – | – | – | – |
| CN(C)CCNC(=O)c1cccc2c1c(C(=O)C(=O)NC1=CC(=O)OC1)cn2Cc1ccc(Cl)cc1 | 225 to 227 °C | – | – | – | – |
| O=C1C=C(NC(=O)C(=O)c2cn(Cc3ccc(Cl)cc3)c3cc(Cl)ccc23)CO1 [Example 4] | – | 0.049 µg/mL (≈ 0.114 µM) | 0.3 µg/mL (≈ 0.699 µM) | 0.1 µg/mL (≈ 0.233 µM) | 0.12 µg/mL (≈ 0.28 µM) |
| O=C1C=C(NC(=O)C(=O)c2cn(Cc3ccc(F)cc3)c3ccccc23)CO1 [Example 3, N-(5-oxo-2,5-dihydrofuran-3-yl)-2-(1-(4-fluorobenzyl)-1H-indol-3-yl)-2-oxo-acetamide] | 260 to 262 °C | 0.012 µg/mL (≈ 0.0317 µM) | 0.035 µg/mL (≈ 0.0925 µM) | 0.0004 µg/mL (≈ 0.00106 µM) | 0.088 µg/mL (≈ 0.233 µM) |
| O=C1C=C(NC(=O)C(=O)c2cn(Cc3ccc(Cl)cc3)c3ccccc23)CO1 [Example 2, N-(5-oxo-2,5-dihydrofuran-3-yl)-2-(1-(4-chlorobenzyl)-1H-indol-3-yl)-2-oxo-acetamide] | 253 to 255 °C | 0.011 µg/mL (≈ 0.0279 µM) | 0.22 µg/mL (≈ 0.557 µM) | 0.13 µg/mL (≈ 0.329 µM) | 0.048 µg/mL (≈ 0.122 µM) |
| O=C1C=C(NC(=O)C(=O)c2cn(Cc3ccc(Cl)cc3)c3ccccc23)CS1 | 268 to 270 °C | – | – | – | – |
| O=C1C=C(NC(=O)C(=O)c2cn(Cc3ccc(Cl)cc3)c3cccc(CO)c23)CO1 | 238 to 240 °C | – | – | – | – |

From US6753342B2, “2-(1h-indol-3-yl)-2-oxo-acetamides with antitumor activity” (Novuspharma S.p.A., priority 1999, dated 2004)
